Laboratory results as given in patent US12077503B2, “Substituted cyclic amides and their use as herbicides” (FMC CORPORATION, priority 2015, dated 2024).

What was measured:
Assay type in all cases: in vivo
[1] = system: redroot pigweed (Amaranthus retroflexus); assay: Test G Pre-Emergence Protocol; details: Amaranthus retroflexus, pre-emergence, 312 h, evaluated after 13 days; for pest or weed control at 15.625 g/ha: 15.625 g ai/ha; for pest or weed control at 15.625 g/ha / pest or weed control at 250 g/ha: read-out: Pigweed, Redroot damage rating (100=total damage to plant; 0=no damage to plant); for pest or weed control at 62.5 g/ha: 62.5 g ai/ha, 100=total damage to plant, 0=no damage to plant, read-out: Pigweed, Redroot damage rating; for pest or weed control at 250 g/ha: 250 g ai/ha
Method in brief: (§1)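 Herbicidal effect was rated 13 days post-application on a scale where 100 equals total damage. Spraying took place the day after sowing, using 15.625, 62.5 or 250 g/ha of compound in a 50:50 acetone/water solution with 0.5% Tween 20.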

[2] = system: ivy-leaved morning glory (Ipomoea hederacea); assay: Test G Pre-Emergence Protocol; details: Ipomoea, pre-emergence, 312 h, evaluated after 13 days; for pest or weed control at 15.625 g/ha: 15.625 g ai/ha; for pest or weed control at 15.625 g/ha / pest or weed control at 250 g/ha: read-out: Morningglory, Ivy-leaved damage rating (100=total damage to plant; 0=no damage to plant); for pest or weed control at 62.5 g/ha: 62.5 g ai/ha, 100=total damage to plant, 0=no damage to plant, read-out: Morningglory, Ivy-leaved damage rating; for pest or weed control at 250 g/ha: 250 g ai/ha
Method in brief: as §1

[3] = system: giant foxtail (Setaria faberi); assay: Test G Pre-Emergence Protocol; details: Setaria faberi, pre-emergence, 312 h, evaluated after 13 days; for pest or weed control at 15.625 g/ha: 15.625 g ai/ha; for pest or weed control at 15.625 g/ha / pest or weed control at 250 g/ha: read-out: Foxtail, Giant damage rating (100=total damage to plant; 0=no damage to plant); for pest or weed control at 62.5 g/ha: 62.5 g ai/ha, 100=total damage to plant, 0=no damage to plant, read-out: Foxtail, Giant damage rating; for pest or weed control at 250 g/ha: 250 g ai/ha
Method in brief: as §1

[4] = system: velvetleaf (Abutilon theophrasti); assay: Test G Pre-Emergence Protocol; details: Abutilon theophrasti, pre-emergence, 312 h, evaluated after 13 days; for pest or weed control at 15.625 g/ha: 15.625 g ai/ha; for pest or weed control at 15.625 g/ha / pest or weed control at 250 g/ha: read-out: Velvetleaf damage rating (100=total damage to plant; 0=no damage to plant); for pest or weed control at 62.5 g/ha: 62.5 g ai/ha, 100=total damage to plant, 0=no damage to plant, read-out: Velvetleaf damage rating; for pest or weed control at 250 g/ha: 250 g ai/ha
Method in brief: as §1

[5] = system: barnyardgrass (Echinochloa crus-galli); assay: Test G Pre-Emergence Protocol; details: Echinochloa crus-galli, pre-emergence, 312 h, evaluated after 13 days; for pest or weed control at 15.625 g/ha: 15.625 g ai/ha; for pest or weed control at 15.625 g/ha / pest or weed control at 250 g/ha: read-out: Barnyardgrass damage rating (100=total damage to plant; 0=no damage to plant); for pest or weed control at 62.5 g/ha: 62.5 g ai/ha, 100=total damage to plant, 0=no damage to plant, read-out: Barnyardgrass damage rating; for pest or weed control at 250 g/ha: 250 g ai/ha
Method in brief: as §1

corn (Zea mays) [6] = assay: Test G Pre-Emergence Protocol; details: Zea mays, pre-emergence, 312 h, evaluated after 13 days; for plant injury at 15.625 g/ha: 15.625 g ai/ha; for plant injury at 15.625 g/ha / plant injury at 250 g/ha: read-out: Corn damage rating (100=total damage to plant; 0=no damage to plant); for plant injury at 62.5 g/ha: 62.5 g ai/ha, 100=total damage to plant, 0=no damage to plant, read-out: Corn damage rating; for plant injury at 250 g/ha: 250 g ai/ha
Method in brief: as §1

[7] = system: redroot pigweed (Amaranthus retroflexus); assay: Test G Post-Emergence Protocol; details: Amaranthus retroflexus, post-emergence, 312 h, read-out: Pigweed, Redroot damage rating; for pest or weed control at 15.625 g/ha: 15.625 g ai/ha, evaluated after 13 days (100=total damage to plant; 0=no damage to plant); for pest or weed control at 62.5 g/ha: 62.5 g ai/ha; for pest or weed control at 62.5 g/ha / pest or weed control at 250 g/ha: evaluated after 13 days, 100=total damage to plant, 0=no damage to plant; for pest or weed control at 250 g/ha: 250 g ai/ha
Method in brief: (§2)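 Eight days post-sowing, plants received a spray of test compound (acetone/water 50:50, 0.5% Tween 20) at 15.625, 62.5 or 250 g/ha. Glasshouse regime thereafter: 24/16 °C, 14 h light, 65% humidity. Assessment after 13 days on a 0–100 damage scale.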

[8] = system: ivy-leaved morning glory (Ipomoea hederacea); assay: Test G Post-Emergence Protocol; details: Ipomoea, post-emergence, 312 h, read-out: Morningglory, Ivy-leaved damage rating; for pest or weed control at 15.625 g/ha: 15.625 g ai/ha, evaluated after 13 days (100=total damage to plant; 0=no damage to plant); for pest or weed control at 62.5 g/ha: 62.5 g ai/ha; for pest or weed control at 62.5 g/ha / pest or weed control at 250 g/ha: evaluated after 13 days, 100=total damage to plant, 0=no damage to plant; for pest or weed control at 250 g/ha: 250 g ai/ha
Method in brief: as §2

[9] = system: giant foxtail (Setaria faberi); assay: Test G Post-Emergence Protocol; details: Setaria faberi, post-emergence, 312 h, read-out: Foxtail, Giant damage rating; for pest or weed control at 15.625 g/ha: 15.625 g ai/ha, evaluated after 13 days (100=total damage to plant; 0=no damage to plant); for pest or weed control at 62.5 g/ha: 62.5 g ai/ha
Method in brief: as §2

[10] = system: velvetleaf (Abutilon theophrasti); assay: Test G Post-Emergence Protocol; details: Abutilon theophrasti, post-emergence, 312 h, read-out: Velvetleaf damage rating; for pest or weed control at 15.625 g/ha: 15.625 g ai/ha, evaluated after 13 days (100=total damage to plant; 0=no damage to plant); for pest or weed control at 62.5 g/ha: 62.5 g ai/ha; for pest or weed control at 62.5 g/ha / pest or weed control at 250 g/ha: evaluated after 13 days, 100=total damage to plant, 0=no damage to plant; for pest or weed control at 250 g/ha: 250 g ai/ha
Method in brief: as §2

[11] = system: barnyardgrass (Echinochloa crus-galli); assay: Test G Post-Emergence Protocol; details: Echinochloa crus-galli, post-emergence, 312 h, read-out: Barnyardgrass damage rating; for pest or weed control at 15.625 g/ha: 15.625 g ai/ha, evaluated after 13 days (100=total damage to plant; 0=no damage to plant); for pest or weed control at 62.5 g/ha: 62.5 g ai/ha; for pest or weed control at 62.5 g/ha / pest or weed control at 250 g/ha: evaluated after 13 days, 100=total damage to plant, 0=no damage to plant; for pest or weed control at 250 g/ha: 250 g ai/ha
Method in brief: as §2

corn (Zea mays) [12] = assay: Test G Post-Emergence Protocol; details: Zea mays, post-emergence, 312 h, read-out: Corn damage rating; for plant injury at 15.625 g/ha: 15.625 g ai/ha, evaluated after 13 days (100=total damage to plant; 0=no damage to plant); for plant injury at 62.5 g/ha: 62.5 g ai/ha; for plant injury at 62.5 g/ha / plant injury at 250 g/ha: evaluated after 13 days, 100=total damage to plant, 0=no damage to plant; for plant injury at 250 g/ha: 250 g ai/ha
Method in brief: as §2

[13] = evaluated after 13 days, 100=total damage to plant, 0=no damage to plant

Row | SMILES | pest or weed control at 15.625 g/ha [1] [%] | pest or weed control at 62.5 g/ha [1] [%] | pest or weed control at 250 g/ha [1] [%] | pest or weed control at 15.625 g/ha [2] [%] | pest or weed control at 62.5 g/ha [2] [%] | pest or weed control at 250 g/ha [2] [%] | pest or weed control at 15.625 g/ha [3] [%] | pest or weed control at 62.5 g/ha [3] [%] | pest or weed control at 250 g/ha [3] [%] | pest or weed control at 15.625 g/ha [4] [%] | pest or weed control at 62.5 g/ha [4] [%] | pest or weed control at 250 g/ha [4] [%] | pest or weed control at 15.625 g/ha [5] [%] | pest or weed control at 62.5 g/ha [5] [%] | pest or weed control at 250 g/ha [5] [%] | plant injury at 15.625 g/ha (corn (Zea mays) [6]) [%] | plant injury at 62.5 g/ha (corn (Zea mays) [6]) [%] | plant injury at 250 g/ha (corn (Zea mays) [6]) [%] | pest or weed control at 15.625 g/ha [7] [%] | pest or weed control at 62.5 g/ha [7] [%] | further results
1 | CN1C[C@H](c2cccc(C(C)(C)C#N)c2)[C@@H](C(=O)Nc2ccccc2S(C)(=O)=O)C1=O (racemic) [Compound 1784] | 0 | 0 | 0 | 0 | 0 | 10 | 10 | 0 | 40 | 0 | 0 | 0 | 0 | 10 | 10 | 0 | 0 | 0 | 0 | 0 | pest or weed control at 250 g/ha [7]: 0%; pest or weed control at 15.625 g/ha [8]: 0%; pest or weed control at 62.5 g/ha [8]: 0%; pest or weed control at 250 g/ha [8]: 0%; pest or weed control at 15.625 g/ha [9]: 0%; pest or weed control at 62.5 g/ha [9, 13]: 0%; pest or weed control at 250 g/ha ([9]; 250 g ai/ha, evaluated after 13 days, 100=total damage to plant, 0=no damage to plant): 0%; pest or weed control at 15.625 g/ha [10]: 0%; pest or weed control at 62.5 g/ha [10]: 0%; pest or weed control at 250 g/ha [10]: 0%; pest or weed control at 15.625 g/ha [11]: 0%; pest or weed control at 62.5 g/ha [11]: 0%; pest or weed control at 250 g/ha [11]: 0%; plant injury at 15.625 g/ha (corn (Zea mays) [12]): 0%; plant injury at 62.5 g/ha (corn (Zea mays) [12]): 0%; plant injury at 250 g/ha (corn (Zea mays) [12]): 0%
2 | CN1C[C@H](c2cccc(C(F)(F)F)c2)[C@@H](C(=O)Nc2ccc(O)cc2F)C1=O (racemic) [Compound 1785] | 0 | 0 | 20 | 0 | 0 | 0 | 0 | 0 | 10 | 0 | 0 | 0 | 0 | 0 | 0 | 0 | 0 | 0 | 0 | 0 | pest or weed control at 250 g/ha [7]: 0%; pest or weed control at 15.625 g/ha [8]: 0%; pest or weed control at 62.5 g/ha [8]: 0%; pest or weed control at 250 g/ha [8]: 0%; pest or weed control at 15.625 g/ha [9]: 0%; pest or weed control at 62.5 g/ha [9, 13]: 0%; pest or weed control at 15.625 g/ha [10]: 0%; pest or weed control at 62.5 g/ha [10]: 0%; pest or weed control at 250 g/ha [10]: 0%; pest or weed control at 15.625 g/ha [11]: 0%; pest or weed control at 62.5 g/ha [11]: 0%; pest or weed control at 250 g/ha [11]: 0%; plant injury at 15.625 g/ha (corn (Zea mays) [12]): 0%; plant injury at 62.5 g/ha (corn (Zea mays) [12]): 0%; plant injury at 250 g/ha (corn (Zea mays) [12]): 0%
3 | CCOc1cc([C@@H]2CN(C)C(=O)[C@H]2C(=O)Nc2cccc(F)c2C)ccc1C(F)(F)F (racemic) [Compound 1787] | 0 | 0 | 20 | 0 | 0 | 20 | 60 | 70 | 90 | 0 | 10 | 20 | 50 | 60 | 90 | 20 | 20 | 40 | 20 | 20 | pest or weed control at 250 g/ha [7]: 70%; pest or weed control at 15.625 g/ha [8]: 50%; pest or weed control at 62.5 g/ha [8]: 70%; pest or weed control at 250 g/ha [8]: 70%; pest or weed control at 15.625 g/ha [9]: 40%; pest or weed control at 62.5 g/ha [9, 13]: 70%; pest or weed control at 15.625 g/ha [10]: 20%; pest or weed control at 62.5 g/ha [10]: 20%; pest or weed control at 250 g/ha [10]: 40%; pest or weed control at 15.625 g/ha [11]: 20%; pest or weed control at 62.5 g/ha [11]: 60%; pest or weed control at 250 g/ha [11]: 60%; plant injury at 15.625 g/ha (corn (Zea mays) [12]): 30%; plant injury at 62.5 g/ha (corn (Zea mays) [12]): 50%; plant injury at 250 g/ha (corn (Zea mays) [12]): 60%
